Measured values as given in US20200101068A1, “Heteroaryl Derivatives as PARP Inhibitors” (Lupin Limited, priority 2015, published 2020).

Target: T1, PARP1 (Homo sapiens, UniProt P09874)
T1 construct: purchased BPS Bioscience
Assay: PARP1 biochemical assay (BPS Bioscience kit, chemiluminescent)
Conditions: histone-coated plate, biotinylated NAD+, 60 min at 25° C., luminescence; read-out: PARP 1 inhibition IC50
Method: Example 16: PARP1 Biochemical Assay
The assay was performed using BPS Bioscience kit. The 96-well strip plate was coated with 50 μl of histone mixture and incubated at 4° C. overnight. The next day, the wells were blocked by adding 100 μl of blocking buffer. The plate was washed and 25 μl of appropriate concentration of PARP1 (25-75 ng/well) was added in all of the Test and Positive control wells. In the Negative control wells, the enzyme was replaced with 25 μl of water. 5 μl each of 10× PARP assay buffer and activated DNA was added in all the wells (Test, Positive and Negative control wells). 10× concentration of the test compounds were prepared and 5 μl test compounds were added to the respective wells. The reaction volume was made up to 45 μl by adding water to all of the wells. 5 μl of 10× PARP assay mixture containing biotinilated NAD^+ was added in each well and the plate was incubated at ambient temperature (25° C.) for 60 min. After washing the plate 50 μl of Streptavidin-HRP was added in each well, the plate was incubated at RT for 30 min. The plate was washed and the luminescence was read in PHERAStar plate reader after adding 100 μl of chemiluminescent substrate.
PARP inhibition was calculated using the following formula:
% PARP inhibition=100−[(RLU test compound treated sample−RLU negative control)/(RLU Positive control−RLU negative control)×100]
IC50 values were calculated by plotting % inhibition against the respective concentrations of test compounds using GraphPad Prism 5.

T1 sequence (P09874 whole entry): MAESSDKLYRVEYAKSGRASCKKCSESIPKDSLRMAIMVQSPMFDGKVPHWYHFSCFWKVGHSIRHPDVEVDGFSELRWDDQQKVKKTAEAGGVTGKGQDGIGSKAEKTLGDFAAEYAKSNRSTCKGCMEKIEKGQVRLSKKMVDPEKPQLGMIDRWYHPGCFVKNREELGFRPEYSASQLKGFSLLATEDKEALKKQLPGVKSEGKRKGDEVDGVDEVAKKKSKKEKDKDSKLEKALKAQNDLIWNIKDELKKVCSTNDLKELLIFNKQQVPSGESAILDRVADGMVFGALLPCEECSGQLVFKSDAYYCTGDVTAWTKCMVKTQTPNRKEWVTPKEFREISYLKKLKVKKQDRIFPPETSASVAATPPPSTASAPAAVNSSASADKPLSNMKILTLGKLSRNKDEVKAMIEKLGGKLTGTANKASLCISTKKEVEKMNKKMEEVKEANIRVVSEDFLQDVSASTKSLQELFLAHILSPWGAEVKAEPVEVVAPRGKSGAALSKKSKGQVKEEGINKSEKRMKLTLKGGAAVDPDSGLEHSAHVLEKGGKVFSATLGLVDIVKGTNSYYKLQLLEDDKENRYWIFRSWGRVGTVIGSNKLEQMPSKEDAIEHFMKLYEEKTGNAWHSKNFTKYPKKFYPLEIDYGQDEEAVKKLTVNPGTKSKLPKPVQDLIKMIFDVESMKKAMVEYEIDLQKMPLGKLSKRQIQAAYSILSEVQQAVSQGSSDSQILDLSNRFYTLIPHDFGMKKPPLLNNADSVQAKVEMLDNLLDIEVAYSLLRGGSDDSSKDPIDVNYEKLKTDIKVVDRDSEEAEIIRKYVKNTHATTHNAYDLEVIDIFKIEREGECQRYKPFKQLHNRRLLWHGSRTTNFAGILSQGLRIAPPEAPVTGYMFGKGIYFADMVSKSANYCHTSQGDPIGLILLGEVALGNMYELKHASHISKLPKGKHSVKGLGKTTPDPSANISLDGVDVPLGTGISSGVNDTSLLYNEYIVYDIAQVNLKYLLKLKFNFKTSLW

Structure (SMILES) | IC50 [nM]
O=c1[nH]c(C2=C[C@H](N3CCN(c4nccs4)CC3)CC2)cc2sccc12 [Compound 51, (R)-6-(3-(4-(thiazol-2-yl)piperazin-1-yl)cyclopent-1-en-1-yl)thieno[3,2-c]pyridin-4(5H)-one] | 5.1 to 50
N#Cc1ccc(N2CCN([C@H]3C=C(c4cc5ncsc5c(=O)[nH]4)CC3)CC2)c(F)c1 [Compound 52, (R)-3-fluoro-4-(4-(3-(4-oxo-4,5-dihydrothiazolo[5,4-c]pyridin-6-yl)cyclopent-2-en-1-yl)piperazin-1-yl)benzonitrile] | 0.5 to 5
N#Cc1ccc(N2CCN([C@H]3C=C(c4cc5cccn5c(=O)[nH]4)CC3)CC2)cc1 [Compound 54, (R)-4-(4-(3-(1-oxo-1,2-dihydropyrrolo[1,2-c]pyrimidin-3-yl)cyclopent-2-en-1-yl)piperazin-1-yl)benzonitrile] | 0.5 to 5
O=c1[nH]c(C2=C[C@H](N3CCN(c4ccc(F)cc4)CC3)CC2)cc2cccn12 [Compound 55, (R)-3-(3-(4-(4-fluorophenyl)piperazin-1-yl)cyclopent-1-en-1-yl)pyrrolo [1,2-c]pyrimidin-1(2H)-one] | 0.5 to 5
N#Cc1ccc(N2CCN([C@H]3C=C(c4cn5cccc5c(=O)[nH]4)CC3)CC2)cc1 [Compound 56, (R)-4-(4-(3-(1-oxo-1,2-dihydropyrrolo[1,2-a]pyrazin-3-yl)cyclopent-2-en-1-yl)piperazin-1-yl)benzonitrile] | 0.5 to 5
